Source: patent publication US9296734B2 (AMGEN INC., priority 2013, dated 2016)

The molecules below were run on Aβ40 in conditioned medium of cells stably expressing Amyloid Precursor Protein (APP) (assay: In vitro BACE cell-based assay (Aβ40 sandwich ELISA)). Conditions: Homo sapiens, HEK293, HEK cells; average; read-out: HEK cell assay IC50.
Protocol: In Vitro BACE Cell-Based Assay
The cell-based assay measures inhibition or reduction of Aβ40 in conditioned medium of test compound treated cells expressing amyloid precursor protein.
Cells stably expressing Amyloid Precursor Protein (APP) were plated at a density of 40K cells/well in 96 well plates (Costar). The cells were cultivated for 24 hours at 37° C. and 5% CO2 in DMEM supplemented with 10% FBS. The test compounds were then added to cells in 10-point dose response concentrations with the starting concentration being either 100 μM or 10 μM. The compounds were diluted from stock solutions in DMSO and the final DMSO concentration of the test compounds on cells was 0.1%. After 24 h of incubation with the test compounds the supernatant conditioned media was collected and the Aβ 40 levels were determined using a sandwich ELISA. The IC50 of the compound was calculated from the percent of control or percent inhibition of Aβ 40 as a function of the concentration of the test compound.
The sandwich ELISA to detect Aβ 40 was performed in 96 well microtiter plates, which were pre-treated with goat anti-rabbit IgG (Pierce). The capture and detecting antibody pair that were used to detect Aβ 40 from cell supernatants were affinity purified pAb40 (Biosource) and biotinylated 6E10 (Signet Labs Inc.), respectively. The optimal concentration for the pAb40 antibody was 3 μg/ml in Superblock/TBS (Pierce) that was supplemented with 0.05% Tween 20 (Sigma).
Cellular supernatants were incubated with the capture antibody for 3 h at 4° C., followed by 3 wash steps in TBS-tween (0.05%). The detecting antibody incubation was for 2 h at 4° C., again followed by the wash steps as described previously. The final readout of the ELISA is Time-Resolved Fluorescence (counts per minute) using Delfia reagents Streptavidin-Europium and Enhancement solutions (Perkin Elmer) and the Victor 2 multilabel counter (Perkin Elmer).

IC50 [µM] | Compound
0.007 | C[C@@]1(c2cc(NC(=O)c3nn(C(F)F)cc3Cl)cc(F)c2F)C[C@@H](C(F)(F)F)OC(N)=N1 [Example 196, N-(3-((4S,6S)-2-amino-4-methyl-6-(trifluoromethyl)-5,6-dihydro-4H-1,3-oxazin-4-yl)-4,5-difluorophenyl)-4-chloro-1-(difluoromethyl)-1H-pyrazole-3-carboxamide]

Same assay, conditions: Homo sapiens, HEK293, average IC50; HEK cells; read-out: HEK cell assay IC50

IC50 [µM] | Compound
0.192 | N#Cc1cnc2c(Nc3ccc(F)c([C@]4(CF)C[C@@H](C(F)(F)F)OC(N)=N4)c3)ncnc2c1 [Example 23, 4-((3-((4S,6S)-2-amino-4-(fluoromethyl)-6-(trifluoromethyl)-5,6-dihydro-4H-1,3-oxazin-4-yl)-4-fluorophenyl)amino)pyrido[3,2-d]pyrimidine-7-carbonitrile]

Same assay, conditions: Homo sapiens, HEK293, read-out: HEK cell assay IC50

Compound | IC50 [µM]
NC1=N[C@](CF)(c2cc(Oc3cc(-c4ccccc4)ccn3)ccc2F)C[C@@H](C(F)(F)F)O1 [Example 102, (4S,6S)-4-(2-fluoro-5-((4-phenylpyridin-2-yl)oxy)phenyl)-4-(fluoromethyl)-6-(trifluoromethyl)-5,6-dihydro-4H-1,3-oxazin-2-amine] | 2.82

The molecules below were run against Beta Secretase enzyme (BACE) (Homo sapiens (Human), UniProt P56817) (assay: In vitro enzymatic BACE FRET assay). Conditions: average IC50; read-out: BACE 1 FRET assay IC50.
Beta Secretase enzyme (BACE), sequence (P56817 46-501): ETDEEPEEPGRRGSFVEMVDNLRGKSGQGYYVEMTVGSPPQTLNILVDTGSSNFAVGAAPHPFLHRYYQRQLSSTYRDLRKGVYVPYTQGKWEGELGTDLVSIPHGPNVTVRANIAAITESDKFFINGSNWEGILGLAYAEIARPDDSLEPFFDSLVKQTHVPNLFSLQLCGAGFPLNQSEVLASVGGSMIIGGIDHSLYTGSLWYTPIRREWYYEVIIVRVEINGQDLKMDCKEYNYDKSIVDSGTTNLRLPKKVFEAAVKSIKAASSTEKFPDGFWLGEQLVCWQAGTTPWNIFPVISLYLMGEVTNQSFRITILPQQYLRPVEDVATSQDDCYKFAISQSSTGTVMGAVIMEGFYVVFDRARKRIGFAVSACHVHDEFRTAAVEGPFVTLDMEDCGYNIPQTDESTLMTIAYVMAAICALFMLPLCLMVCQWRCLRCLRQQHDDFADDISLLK
Assay type: biochemical
Protocol: In Vitro Enzymatic BACE FRET (Fluorescence Resonance Energy Transfer) Assay (Enzyme Assay Data in the Example Table I)
The assay buffer used in this screen is 0.05 M acetate, pH 4.2, 10% DMSO final, 100 uM genapol (which is a nonionic detergent, below its Critical Micelle Concentration). […] This assay is effectively started by the addition of FRET substrate (50 nM) and the combination is incubated for one hour. The FRET assay is terminated with by addition of Tris buffer, which raises the pH to neutrality, and the fluorescence is determined. The FRET substrate is a peptide with commercially available fluorophore and quencher, on opposite sides of the BACE cleavage site.

IC50 [µM] | Compound
0.03 | COc1cnc(C(=O)Nc2ccc(F)c([C@]3(C)C[C@@H](C(F)(F)F)OC(N)=N3)c2)cn1 [Example 27, N-(3-((4S,6S)-2-amino-4-methyl-6-(trifluoromethyl)-5,6-dihydro-4H-1,3-oxazin-4-yl)-4-fluorophenyl)-5-methoxypyrazine-2-carboxamide]

Same assay, conditions: average; read-out: BACE 1 FRET assay IC50

IC50 [µM] | Compound
0.011 | C[C@@]1(c2cc(NC(=O)c3nn(C(F)F)cc3Cl)cc(F)c2F)C[C@@H](C(F)(F)F)OC(N)=N1 [Example 196, N-(3-((4S,6S)-2-amino-4-methyl-6-(trifluoromethyl)-5,6-dihydro-4H-1,3-oxazin-4-yl)-4,5-difluorophenyl)-4-chloro-1-(difluoromethyl)-1H-pyrazole-3-carboxamide]

Each molecule was assayed against Cathepsin D (Cat D) (Homo sapiens (Human), UniProt P07339) (assay: In vitro enzymatic Cathepsin D (Cat D) FRET assay). Conditions: average IC50, cathepsin D enzyme assay; read-out: CatD IC50.
Cathepsin D (Cat D), sequence (P07339 65-412, species assumed): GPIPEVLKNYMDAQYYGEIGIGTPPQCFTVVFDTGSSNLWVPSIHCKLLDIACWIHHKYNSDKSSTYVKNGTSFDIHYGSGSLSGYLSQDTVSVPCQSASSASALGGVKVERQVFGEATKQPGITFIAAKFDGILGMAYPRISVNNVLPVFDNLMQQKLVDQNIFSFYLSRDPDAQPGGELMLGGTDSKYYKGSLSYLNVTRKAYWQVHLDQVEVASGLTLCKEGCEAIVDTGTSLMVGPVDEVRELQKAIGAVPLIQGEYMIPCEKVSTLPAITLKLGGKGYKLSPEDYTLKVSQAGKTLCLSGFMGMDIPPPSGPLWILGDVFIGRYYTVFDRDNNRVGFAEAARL
Assay type: biochemical
Protocol: In Vitro Enzymatic Cathepsin D (Cat D) FRET (Fluorescence Resonance Energy Transfer) Assay
Recombinant Cat D was expressed in CHO cells. The assay buffer for CathepsinD is 0.05 M citrate pH 3.5, 10% DMSO final, 5 mM CHAPS. […] The assays are effectively started by the addition of different FRET substrates (20 nM for Cat D) and the combination is incubated for one hour. The FRET assay is terminated with by addition of Tris buffer, which raises the pH to neutrality, and the fluorescence is determined. The FRET substrate is a peptide with commercially available fluorophore and quencher, on opposite sides of the BACE cleavage site. […] Proteolytic cleavage of the FRET substrate releases quenching of fluorescence (Cat D excitation 500 nm and emission 580 nm).
In addition, the cathepsin D and cathepsin E assays are described in PCT publication WO2011069934.

Compound | IC50 [µM]
COc1cnc(C(=O)Nc2cnc(F)c([C@]3(C)C[C@@H](C(F)(F)F)OC(N)=N3)c2)cn1 [Example 70, N-(5-((4S,6S)-2-amino-4-methyl-6-(trifluoromethyl)-5,6-dihydro-4H-1,3-oxazin-4-yl)-6-fluoropyridin-3-yl)-5-methoxypyrazine-2-carboxamide] | 397
C[C@@]1(c2cc(NC(=O)N3CCc4ccccc4C3)ccc2F)C[C@@H](C(F)(F)F)OC(N)=N1 [Example 121, N-(3-((4S,6S)-2-amino-4-methyl-6-(trifluoromethyl)-5,6-dihydro-4H-1,3-oxazin-4-yl)-4-fluorophenyl)-3,4-dihydroisoquinoline-2(1H)-carboxamide] | 3610

Continued, values first:

IC50 [µM] | Compound
> 400 | Cc1nc(OCC(F)(F)F)cnc1C(=O)Nc1ccc(F)c([C@]2(CF)C[C@@H](C(F)(F)F)OC(N)=N2)c1 [Example 38, N-(3-((4S,6S)-2-amino-4-(fluoromethyl)-6-(trifluoromethyl)-5,6-dihydro-4H-1,3-oxazin-4-yl)-4-fluorophenyl)-3-methyl-5-(2,2,2-trifluoroethoxy)pyrazine-2-carboxamide]
> 400 | N#Cc1cnc2c(Nc3cc(F)c(F)c([C@]4(CF)C[C@@H](C(F)(F)F)OC(N)=N4)c3)nccc2c1 [Example 162, 8-((3-((4S,6S)-2-amino-4-(fluoromethyl)-6-(trifluoromethyl)-5,6-dihydro-4H-1,3-oxazin-4-yl)-4,5-difluorophenyl)amino)-1,7-naphthyridine-3-carbonitrile]

Same assay, conditions: average IC50; read-out: CatD IC50

Compound | IC50 [µM]
NC1=N[C@](CF)(c2cc(Oc3cc(-c4ccccc4)ccn3)ccc2F)C[C@@H](C(F)(F)F)O1 [Example 102, (4S,6S)-4-(2-fluoro-5-((4-phenylpyridin-2-yl)oxy)phenyl)-4-(fluoromethyl)-6-(trifluoromethyl)-5,6-dihydro-4H-1,3-oxazin-2-amine] | 114
COc1cnc(C(=O)Nc2ccc(F)c([C@]3(C)C[C@@H](C(F)(F)F)OC(N)=N3)c2)cn1 [Example 27, N-(3-((4S,6S)-2-amino-4-methyl-6-(trifluoromethyl)-5,6-dihydro-4H-1,3-oxazin-4-yl)-4-fluorophenyl)-5-methoxypyrazine-2-carboxamide] | > 400
NC1=N[C@](CF)(c2cc(Oc3ncccc3F)ccc2F)C[C@@H](C(F)(F)F)O1 [Example 94] | 2220
C[C@@]1(c2nc(NC(=O)c3ncc(C(F)(F)F)cc3Cl)ccc2F)C[C@@H](C(F)(F)F)OC(N)=N1 [Example 81, N-(6-((4S,6S)-2-amino-4-methyl-6-(trifluoromethyl)-5,6-dihydro-4H-1,3-oxazin-4-yl)-5-fluoropyridin-2-yl)-3-chloro-5-(trifluoromethyl)-picolinamide] | > 400

Next, values leading:

IC50 [µM] | Compound
229 | C[C@@]1(c2nc(Nc3ncc(F)c4cc(C#N)cnc34)ccc2F)C[C@@H](C(F)(F)F)OC(N)=N1 [Example 89, 8-((6-((4S,6S)-2-amino-4-methyl-6-(trifluoromethyl)-5,6-dihydro-4H-1,3-oxazin-4-yl)-5-fluoropyridin-2-yl)amino)-5-fluoro-1,7-naphthyridine-3-carbonitrile]
> 400 | COc1cnc2c(Nc3ccc(F)c([C@]4(CF)C[C@@H](C(F)(F)F)OC(N)=N4)c3)nccc2c1 [Example 12, (4S,6S)-4-(2-fluoro-5-((3-methoxy-1,7-naphthyridin-8-yl)amino)phenyl)-4-(fluoromethyl)-6-(trifluoromethyl)-5,6-dihydro-4H-1,3-oxazin-2-amine]
> 400 | C[C@@]1(c2cc(NC(=O)c3ccc(C#N)cn3)cnc2F)C[C@@H](C(F)(F)F)OC(N)=N1 [Example 62, N-(5-((4S,6S)-2-amino-4-methyl-6-(trifluoromethyl)-5,6-dihydro-4H-1,3-oxazin-4-yl)-6-fluoropyridin-3-yl)-5-cyanopicolinamide]
> 400 | C[C@@]1(c2nc(NC(=O)c3ncc(C#N)cc3Cl)ccc2F)C[C@@H](C(F)(F)F)OC(N)=N1 [Example 82, N-(6-((4S,6S)-2-amino-4-methyl-6-(trifluoromethyl)-5,6-dihydro-4H-1,3-oxazin-4-yl)-5-fluoropyridin-2-yl)-3-chloro-5-cyanopicolinamide]

Same assay, conditions: average; read-out: CatD IC50

Compound | IC50 [µM]
C[C@@]1(c2cc(NC(=O)c3nn(C(F)F)cc3Cl)cc(F)c2F)C[C@@H](C(F)(F)F)OC(N)=N1 [Example 196, N-(3-((4S,6S)-2-amino-4-methyl-6-(trifluoromethyl)-5,6-dihydro-4H-1,3-oxazin-4-yl)-4,5-difluorophenyl)-4-chloro-1-(difluoromethyl)-1H-pyrazole-3-carboxamide] | 628
C[C@@]1(c2cc(NC(=O)c3ccc(Cl)cn3)cc(F)c2Cl)C[C@@H](C(F)(F)F)OC(N)=N1 [Example 236, N-(3-((4S,6S)-2-amino-4-methyl-6-(trifluoromethyl)-5,6-dihydro-4H-1,3-oxazin-4-yl)-4-chloro-5-fluorophenyl)-5-chloropicolinamide] | 408
COc1cnc(C(=O)Nc2cc(Cl)c(F)c([C@]3(C)C[C@@H](C(F)(F)F)OC(N)=N3)c2)c(C)n1 [Example 215, N-(3-((4S,6S)-2-amino-4-methyl-6-(trifluoromethyl)-5,6-dihydro-4H-1,3-oxazin-4-yl)-5-chloro-4-fluorophenyl)-5-methoxy-3-methylpyrazine-2-carboxamide] | > 400

Continued, values first:

IC50 [µM] | Compound
1140 | COc1cnc(C(=O)Nc2cc(F)c(F)c([C@]3(C)C[C@@H](C(F)(F)F)OC(N)=N3)c2)c(C)c1 [Example 202, N-(3-((4S,6S)-2-amino-4-methyl-6-(trifluoromethyl)-5,6-dihydro-4H-1,3-oxazin-4-yl)-4,5-difluorophenyl)-5-methoxy-3-methylpicolinamide]
> 400 | NC1=N[C@](CF)(c2cc(NC(=O)c3ncc(Cl)cc3F)cc(F)c2F)C[C@@H](C(F)(F)F)O1 [Example 233, N-(3-((4S,6S)-2-amino-4-(fluoromethyl)-6-(trifluoromethyl)-5,6-dihydro-4H-1,3-oxazin-4-yl)-4,5-difluorophenyl)-5-chloro-3-fluoropicolinamide]
992 | Cc1cc(NC(=O)c2ccc(C(F)F)cn2)cc([C@]2(CF)C[C@@H](C(F)(F)F)OC(N)=N2)c1F [Example 221, N-(3-((4S,6S)-2-amino-4-(fluoromethyl)-6-(trifluoromethyl)-5,6-dihydro-4H-1,3-oxazin-4-yl)-4-fluoro-5-methylphenyl)-5-(difluoromethyl)picolinamide]
> 400 | Cc1nc(OCC(F)(F)F)cnc1C(=O)Nc1cc(F)c(F)c([C@]2(C)C[C@@H](C(F)(F)F)OC(N)=N2)c1 [Example 197, N-(3-((4S,6S)-2-amino-4-methyl-6-(trifluoromethyl)-5,6-dihydro-4H-1,3-oxazin-4-yl)-4,5-difluorophenyl)-3-methyl-5-(2,2,2-trifluoroethoxy)pyrazine-2-carboxamide]
